Measured values: PubChem BioAssay AID2060492 (Molecular Pharmacology Branch, DTP, NCI, 2025)

Test system: 695427-040-R-J1-PDC complex spheroids, viability percent T/C
Test: Anticancer human tumor 695427-040-R-J1-PDC patient-derived colon adenocarcinoma cell line growth inhibition [GQUAD]
Details: for IC50: curve of first compound; for viability, T/C: stronger effect = lower value
Procedure, shortened: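 Tumor cells were grown as complex spheroids with HUVEC endothelial cells and mesenchymal stem cells as stroma. G-quadruplex stabilizers were combined with targeted agents over half-log dilutions from near the clinical Cmax, or from 10 microM.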
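Also: spheroids exposed to compounds for seven days before readout.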

## C=CC(=O)N1CCN(c2nc(=O)n(-c3c(C)ccnc3C(C)C)c3nc(-c4c(O)cccc4F)c(F)cc23)C(C)C1 (configuration not stated) + Cc1cnc(CNC(=O)c2c(=O)c3ccc(N4CCCN(C)CC4)nc3n3c2sc2ccccc23)cn1
Second compound 0.0316 µM
  IC50: > 10 µM
Second compound 0.1 µM
  IC50: > 10 µM
Second compound 0.316 µM
  IC50: > 10 µM
Second compound 1 µM
  IC50: > 10 µM
Second compound 3.16 µM
  IC50: < 0.0316 µM
Second compound 10 µM
  IC50: < 0.0316 µM
Second compound 0.0316 µM, first compound 0.0316 µM
  viability, T/C: 103%
Second compound 0.0316 µM, first compound 0.1 µM
  viability, T/C: 77%
Second compound 0.0316 µM, first compound 0.316 µM
  viability, T/C: 95.1%
Second compound 0.0316 µM, first compound 1 µM
  viability, T/C: 68.5%
Second compound 0.0316 µM, first compound 3.16 µM
  viability, T/C: 75.7%
Second compound 0.0316 µM, first compound 10 µM
  viability, T/C: 71.6%
Second compound 0.1 µM, first compound 0.0316 µM
  viability, T/C: 89.2%
Second compound 0.1 µM, first compound 0.1 µM
  viability, T/C: 81.7%
Second compound 0.1 µM, first compound 0.316 µM
  viability, T/C: 82.3%
Second compound 0.1 µM, first compound 1 µM
  viability, T/C: 67.7%
Second compound 0.1 µM, first compound 3.16 µM
  viability, T/C: 102%
Second compound 0.1 µM, first compound 10 µM
  viability, T/C: 90.9%
Second compound 0.316 µM, first compound 0.0316 µM
  viability, T/C: 85.7%
Second compound 0.316 µM, first compound 0.1 µM
  viability, T/C: 78.7%
Second compound 0.316 µM, first compound 0.316 µM
  viability, T/C: 70.5%
Second compound 0.316 µM, first compound 1 µM
  viability, T/C: 73.9%
Second compound 0.316 µM, first compound 3.16 µM
  viability, T/C: 92.6%
Second compound 0.316 µM, first compound 10 µM
  viability, T/C: 83.8%
Second compound 1 µM, first compound 0.0316 µM
  viability, T/C: 67.6%
Second compound 1 µM, first compound 0.1 µM
  viability, T/C: 59.4%
Second compound 1 µM, first compound 0.316 µM
  viability, T/C: 60%
Second compound 1 µM, first compound 1 µM
  viability, T/C: 65.1%
Second compound 1 µM, first compound 3.16 µM
  viability, T/C: 77.6%
Second compound 1 µM, first compound 10 µM
  viability, T/C: 79.7%
Second compound 3.16 µM, first compound 0.0316 µM
  viability, T/C: 37.7%
Second compound 3.16 µM, first compound 0.1 µM
  viability, T/C: 50.9%
Second compound 3.16 µM, first compound 0.316 µM
  viability, T/C: 54.2%
Second compound 3.16 µM, first compound 1 µM
  viability, T/C: 54.4%
Second compound 3.16 µM, first compound 3.16 µM
  viability, T/C: 64.1%
Second compound 3.16 µM, first compound 10 µM
  viability, T/C: 57.5%
Second compound 10 µM, first compound 0.0316 µM
  viability, T/C: 34.2%
Second compound 10 µM, first compound 0.1 µM
  viability, T/C: 41.6%
Second compound 10 µM, first compound 0.316 µM
  viability, T/C: 44.5%
Second compound 10 µM, first compound 1 µM
  viability, T/C: 44.7%
Second compound 10 µM, first compound 3.16 µM
  viability, T/C: 58.6%
Second compound 10 µM, first compound 10 µM
  viability, T/C: 49.7%
